One series concerns the target T1, matriptase (Homo sapiens, UniProt Q9Y5Y6).
T1 sequence (Q9Y5Y6 1-855): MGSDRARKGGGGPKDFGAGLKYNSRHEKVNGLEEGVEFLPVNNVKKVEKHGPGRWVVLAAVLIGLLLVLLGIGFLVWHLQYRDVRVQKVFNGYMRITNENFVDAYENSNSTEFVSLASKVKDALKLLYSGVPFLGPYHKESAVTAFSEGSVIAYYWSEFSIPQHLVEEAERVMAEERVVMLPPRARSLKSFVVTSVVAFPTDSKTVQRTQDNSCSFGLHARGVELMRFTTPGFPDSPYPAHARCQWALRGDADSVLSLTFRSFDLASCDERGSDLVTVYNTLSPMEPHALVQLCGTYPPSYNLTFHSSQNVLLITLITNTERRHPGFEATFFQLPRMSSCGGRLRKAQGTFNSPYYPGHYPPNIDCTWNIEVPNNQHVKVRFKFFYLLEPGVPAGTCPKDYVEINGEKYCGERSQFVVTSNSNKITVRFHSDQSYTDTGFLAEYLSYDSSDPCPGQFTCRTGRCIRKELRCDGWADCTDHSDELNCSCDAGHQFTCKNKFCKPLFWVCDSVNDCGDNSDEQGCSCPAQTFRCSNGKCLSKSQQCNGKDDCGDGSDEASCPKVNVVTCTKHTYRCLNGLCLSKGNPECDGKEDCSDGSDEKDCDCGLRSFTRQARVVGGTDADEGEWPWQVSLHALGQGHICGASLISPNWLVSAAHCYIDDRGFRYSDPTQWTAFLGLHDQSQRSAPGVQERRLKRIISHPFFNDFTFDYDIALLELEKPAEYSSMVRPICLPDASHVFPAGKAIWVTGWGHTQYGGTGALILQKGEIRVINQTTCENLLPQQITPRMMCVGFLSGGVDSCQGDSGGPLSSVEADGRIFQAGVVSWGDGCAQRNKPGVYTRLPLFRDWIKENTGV
The conditions noted are these: Forbs et al. 2005; Desilets et al. 2006; cited from earlier work.

The test system of another series is C1r (C1ra) mRNA. Description: siRNA silencing in CHO-K1 derived cells, mRNA expression by real-time RT-PCR. Conditions: for residual protease gene-expression: siRNA negative control cells = 100%. The format is cell-based, Chinese hamster. The method, then: (§1) First, the proteolytic cleavage site(s) of different recombinant proteins that are prone to clipping were analyzed using different techniques including CE-SDS analysis, mass spectrometry and in silico analysis (data not shown). […] The siRNAs were designed against the following target mRNAs expressed in CHO cells: 1. Matriptase (MT-SP1; also referred to herein as St14), 2. C1r (complement component activated C1r; also referred to as Ctra), 3. C1s (complement component C1sB; also referred to as Gm5077), 4. Plat (t-plasminogen activator) and 5. Prss35 (protease, serine, 35). These target genes encode trypsin-like proteases that are either secreted or transmembrane proteins and thus could be involved in clipping of recombinantly expressed proteins that are secreted into the cell culture medium. It was confirmed in advance that these proteins are expressed by the CHO cells. Table 2 provides an overview over the respective target genes:
(§2) RNAi transfection of CHO-K1 derived cells was performed using Lipofectamine® RNAiMAX Reagent (Life Technology, cat. 13778), following the ‘Reverse Transfection Protocol’ of the manual MAN0001182, scaled up for 6-well plates. For each mRNA target, the two most efficient concentrations of RNAi duplex molecules were used among 100, 125 and 150 pmol: 125 and 150 pmol for MT-SP1 (St14), 125 and 150 pmol for C1r (C1ra), 100 and 125 pmol for Cis (Gm5077), 125 and 150 pmol for Plat and 100 and 125 pmol for Prss35. RNAi duplex molecules of the two selected concentrations were diluted in 1 ml Opti-MEM® (Gibco, cat. 31985-062). As RNAi negative control (siRNA negative control), the Silencer@ Negative Control No. 1 siRNA (AM4611) was used (at 125 pmol). 5 μl Lipofectamine® RNAiMAX Reagent was added in each well. 2 ml of a cell suspension with a concentration of 0.5×10^6 cells/ml were added and plates were incubated at 37° C. and 10% CO2. Three days after transfection, cell density was measured, total RNA of 3×10^6 viable cells was extracted using RNeasy Plus Mini Kit (Qiagen, cat. 74134) and conditioned medium was collected from each well. To control the silencing effect on the target genes, mRNA expression was determined by real-time RT-PCR.
For orientation: Real-time PCR tracks product formation cycle by cycle.

For series [1], the system named is Matriptase (MT-SP1, St14) mRNA. The series is described as above. The format is cell-based, Chinese hamster. The conditions noted are these: for residual protease gene-expression: siRNA negative control cells = 100%, three days after transfection. The method, then: as §1, §2
The subject of a further series is Plat mRNA. The series is described as above. The format is cell-based, Chinese hamster. The conditions noted are these: for residual protease gene-expression: siRNA negative control cells = 100%. The method, then:
as §1, §2

The subject of the next series is Prss35 mRNA. The series is described as above. The format is cell-based, Chinese hamster. The conditions noted are these: for residual protease gene-expression: siRNA negative control cells = 100%. The method, then: as §1, §2
The next series concerns C1s (Gm5077) mRNA. The series is described as above. The format is cell-based, Chinese hamster. The conditions noted are these: for residual protease gene-expression: siRNA negative control cells = 100%. The protocol:
as §1, §2

Several values for one entry are separate records, joined by “and”; a condition that tells them apart may be missing. Identical values can stand only once.

By Ki is commonly meant a dissociation constant, usually derived from enzyme kinetics or from competition with a known ligand. On to eglin c, for which the Ki on matriptase was 18 nM.

In the case of “C1r (C1ra): siRNA against C1ra mRNA, sense SEQ ID NO: 8, antisense SEQ ID NO: 9 (sense GAUGUCUUUUCUCAAAAUATT; antisense UAUUUUGAGAAAAGACAUCAT; chemistry not given here)”, the residual protease gene-expression came to 6.3% in the series on C1r (C1ra) mRNA (125 pmol siRNA) and 6.7% in the series with C1r (C1ra) mRNA (150 pmol siRNA). Moreover, in the series with C1r (C1ra) mRNA (two siRNA concentrations), the mRNA reduction is 93.7% and 93.3%.

For the substance “MT-SP1: siRNA against matriptase mRNA, sense SEQ ID NO: 6, antisense SEQ ID NO: 7 (sense GCAAGAUCACUGUUCGCUUTT; antisense AAGCGAACAGUGAUCUUGCTG; chemistry not given here)”, the residual protease gene-expression worked out at 18.6% in series [1] (125 pmol siRNA) and 18.2% in series [1] (150 pmol siRNA). Besides, the “MT-SP1 suppressed in comparison to the negative control” value in series [1] (two set-ups (125 and 150 pmol siRNA)) was 81.4% and 81.8%.

Regarding “Plat: siRNA against Plat mRNA, sense SEQ ID NO: 12, antisense SEQ ID NO: 13 (sense GAAACAAGAUGAAGACAGATT; antisense UCUGUCUUCAUCUUGUUUCCC; chemistry not given here)”, the residual protease gene-expression with Plat mRNA (125 pmol siRNA) is given as 8.3%; with Plat mRNA (150 pmol siRNA) it was 5.1%. Also, the mRNA reduction in the series with Plat mRNA (two siRNA concentrations) is 91.7% and 94.9%.

For “Prss35: siRNA against Prss35 mRNA, sense SEQ ID NO: 14, antisense SEQ ID NO: 15 (sense GGCCUUAGACUACGACUAUTT; antisense AUAGUCGUAGUCUAAGGCCGG; chemistry not given here)”, the residual protease gene-expression in the series with Prss35 mRNA (100 pmol siRNA) worked out at 18.4%; with Prss35 mRNA (125 pmol siRNA), 14.8%. Moreover, the mRNA reduction in the series on Prss35 mRNA (two siRNA concentrations) is 81.6% and 85.2%.

“C1s (Gm5077): siRNA against Gm5077 (C1s) mRNA, sense SEQ ID NO: 10, antisense SEQ ID NO: 11 (sense CGCUGAACGUGUGAUUAUUTT; antisense AAUAAUCACACGUUCAGCGGT; chemistry not given here)”: the results for the residual protease gene-expression in the series on C1s (Gm5077) mRNA (100 pmol siRNA) and with C1s (Gm5077) mRNA (125 pmol siRNA) were 11.9% and 14.4%, respectively. The mRNA reduction in the series on C1s (Gm5077) mRNA (two siRNA concentrations, listed as Cis (Gm5077)) was 88.1% and 85.6%.

These data come from patent publication US11512335B2, “Vertebrate cells and methods for recombinantly expressing a polypeptide of interest” (Novartis AG, priority 2014, dated 2022).
